Like-named read-outs stand apart in the source and are kept apart here.
Columns and labels:
Type in all cases: cell-based
[1] = system: HT29 human colon carcinoma cell line; assay: MTT growth inhibition assay, single agents and fixed-ratio combinations with elsamitrucin (Chou-Talalay, CalcuSyn), HT29
Procedure: (§1) These individual agents and their combinations were evaluated for in vitro activity against the HT29 colon carcinoma, SKMES non-small cell lung carcinoma, and Daudi B-lymphoblastic cell lines. Cell growth in 96-well microculture plates was determined with a semi-automated MTT assay. Efficacies of drug combinations were analyzed according to the methods of Chou and Talalay, utilizing CalcuSyn software. Twenty-one in vitro experiments were conducted to determine the individual and combined growth inhibitory activities of elsamitrucin and the ten selected agents in the three cell lines.
(§2) b. Cell Lines. The human HT29 colon carcinoma, SKMES non-small cell lung carcinoma, and Daudi B-lymphoblastic cell lines were originally obtained from ATCC (American Type Culture Collection). These cell lines have been maintained and stored as frozen stocks. […] The medium for Daudi cells was additionally supplemented with 1 mM sodium pyruvate.
(§3) c. Growth Inhibition Assay. Anti-proliferative activities against the HT29, SKMES, and Daudi cell lines were evaluated in vitro by the MTT assay. Cells (1,500-2,000 cells/well) were seeded in a 96-well microculture plate in 180 pL of medium/well. […] DMSO was present in all wells at a final concentration of 0.1%. […] When the appropriate cell density was attained in the control wells, the plates were centrifuged briefly, and 100 pL of the growth medium was removed. The cell cultures were incubated with 50 μL of MTT reagent (1 mg/mL in Dulbecco's phosphate-buffered saline) for 4 hr at 37° C. The resultant purple formazan precipitate was solubilized with 200 μL of 0.04 N HCl in isopropanol.
(§4) The results of each experiment were stored in Excel format.
(§5) d. Preliminary Experiments: Design and Data Analysis. […] The initial experiments utilized serial three-fold dilutions of the drugs to produce ten test concentrations over a broad concentration range. Based on the initial results, a narrower concentration range was selected, and serial 1:1.5 dilutions were utilized to produce ten test concentrations. Experiments were repeated as needed.
(§6) For assays that utilized lower dilution factors to produce narrower concentration ranges, the results were analyzed with both Prism and CalcuSyn (as described below) to allow comparison of the IC50 and Da, values. The results guided the selection of appropriate concentration ranges and concentration ratios for the combination experiments.
(§7) e. Combination Experiments: Design and Data Analysis. The fixed-ratio design of Chou was used for the combination experiments. For each experiment, the drug solutions were mixed at a ratio that was expected to provide approximately equipotent concentrations, and the mixture was serially diluted with medium containing 1% DMSO to yield 10× stock solutions of the test concentrations. […] Each agent was tested individually and in combination at seven concentrations. The concentration range selected for each assay was designed to bracket the concentrations that produced half-maximal effects (ED50) with each single agent and their mixture. The concentrations used for the single-drug assays were twice as high as their concentrations in the mixture. Each assay was performed in quadruplicate. For each drug combination, the individual agents and their mixture were assayed on the same 96-well plate. The effects of the individual drugs and their combinations were analyzed by the method of Chou and Talalay. The results of each experiment were entered into CalcuSyn (BIOSOFT) for dose-effect analysis.
(§8) where Acontrol and Adrug are the respective absorbances of vehicle control and drug-treated wells in the MIT assay.
(§9) where the slope, m, is related to the sigmoidicity of the dose-effect curve, with m=1, >1, and <1 indicating hyperbolic, sigmoidal, and reverse sigmoidal shapes, respectively.

[2] = system: Daudi human lymphoma cell line; assay: MTT growth inhibition assay, single agents and fixed-ratio combinations with elsamitrucin (Chou-Talalay, CalcuSyn), Daudi; details: Homo sapiens, Daudi
Procedure: as §1, §2, §3, §4, §5, §6, §7, §8, §9

[3] = system: SKMES human non-small cell lung carcinoma cell line; assay: MTT growth inhibition assay, single agents and fixed-ratio combinations with elsamitrucin (Chou-Talalay, CalcuSyn), SKMES; details: for IC50: Homo sapiens
Procedure: as §1, §2, §3, §4, §5, §6, §7, §8, §9

[4] = Homo sapiens, HT-29, HT29, single agent on the same plate as the combination, read-out: Dm Value, Individually, Second Agent
[5] = Homo sapiens, HT-29, SPA-01 (HT29-e21), single agent, dilution 1:3, read-out: Prism IC50
[6] = Homo sapiens, HT-29, SPA-04 (HT29-e22), single agent, dilution 1:1.5, read-out: CalcuSyn Dm
[7] = Homo sapiens, HT-29, SPA-04 (HT29-e22), single agent, dilution 1:1.5, read-out: Prism IC50
[8] = Homo sapiens, HT-29, average of preliminary single-agent experiments, HT29, read-out: Average IC50, Dm value
[9] = Daudi growth inhibition, second agent alone, one value per plate, Table 8 (Supplement), read-out: Dm Value (95% Confidence Interval), Individually, Second Agent
[10] = Daudi growth inhibition, second agent alone, Table 8, read-out: Dm Value (95% Confidence Interval), Individually, Second Agent
[11] = SPA-05 (Daudi-e01), single agent, dilution 1:3, read-out: Prism IC50
[12] = SPA-08 (Daudi-e02), single agent, dilution 1:1.5, read-out: CalcuSyn Dm
[13] = SPA-08 (Daudi-e02), single agent, dilution 1:1.5, read-out: Prism IC50
[14] = average of preliminary single-agent experiments, read-out: Average IC50, Dm value
[15] = read-out: approximate Dm values for the second drugs as single agents
[16] = SKMES growth inhibition, second agent alone, one value per plate (Experiment ID), read-out: Dm Value (95% Confidence Interval), Individually, Second Agent
[17] = SKMES, single agent on the same plate as the combination, read-out: Dm Value, Individually, Second Agent
[18] = SPA-03 (SKMES-e23), single agent, dilution 1:1.5, read-out: CalcuSyn Dm
[19] = SPA-03 (SKMES-e23), single agent, dilution 1:1.5, read-out: Prism IC50
[20] = average of preliminary single-agent experiments, SKMES, read-out: Average IC50, Dm value
[21] = Homo sapiens, HT-29, SPA-10 (HT29-e24), single agent, dilution 1:1.5, read-out: CalcuSyn Dm
[22] = Homo sapiens, HT-29, SPA-10 (HT29-e24), single agent, dilution 1:1.5, read-out: Prism IC50
[23] = SPA-02 (SKMES-e22), single agent, dilution 1:3, read-out: Prism IC50

SMILES	IC50 [1, 4] [nM]	IC50 [1, 5] [nM]	IC50 [1, 6] [nM]	IC50 [1, 7] [nM]	IC50 [1, 8] [nM]	IC50 [2, 9] [nM]	IC50 [2, 10] [nM]	IC50 [2, 11] [nM]	IC50 [2, 12] [nM]	IC50 [2, 13] [nM]	IC50 [2, 14] [nM]	IC50 [2, 15] [nM]	IC50 [3, 16] [nM]	IC50 [3, 17] [nM]	IC50 [3, 18] [nM]	IC50 [3, 19] [nM]	IC50 [3, 20] [nM]	IC50 [1, 21] [nM]	IC50 [1, 22] [nM]	IC50 [3, 23] [nM]	other results
CC(C)C[C@H](NC(=O)[C@H](Cc1ccccc1)NC(=O)c1cnccn1)B(O)O [Bortezomib, bortezomib]	17.8	12	29	23	21	3.9	3.9	3.7	3.4	4	4	~3.9	24	16	21.5	19.5	21				
O=c1[nH]cc(F)c(=O)[nH]1 [5-Fluorouracil, 5-fluorouracil]		~3300	134	280	2040	11700	11700	~9200	11100	12700	12200	~11700	4350	4350	5200	~3300	3590	4200	1650	438	change of Dm in the mixture versus single agent ([1]; HT29): increased only slightly; IC50 ([1]; HT29, single agent on the same plate as the combination, read-out: Dm Value, Individually, Second Agent): 786 nM; IC50 ([2]; SPA-15 (Daudi-e03), single agent, dilution 1:1.5 (elsamitrucin 1:1.33), read-out: CalcuSyn Dm): 13200 nM; IC50 ([2]; SPA-15 (Daudi-e03), single agent, dilution 1:1.5 (elsamitrucin 1:1.33), read-out: Prism IC50): 11900 nM; IC50 ([3]; SPA-09 (SKMES-e25), single agent, dilution 1:1.5, read-out: CalcuSyn Dm): 5580 nM; IC50 ([3]; SPA-09 (SKMES-e25), single agent, dilution 1:1.5, read-out: Prism IC50): 3130 nM
CC[C@@]1(O)C(=O)OCc2c1cc1n(c2=O)Cc2cc3ccccc3nc2-1 [Camptothecin, camptothecin]		16	26	23	153	9.3	9.3	8.5	11	9.5	10	~9.3	8	8	11	11	9	148	550	6	increase of Dm in the combination ([3]; SKMES, in combination with elsamitrucin versus single agent): less than 1.5 fold
COc1cc([C@@H]2c3cc4c(cc3[C@@H](O[C@@H]3O[C@@H]5CO[C@@H](C)O[C@H]5[C@H](O)[C@H]3O)[C@H]3COC(=O)[C@H]23)OCO4)cc(OC)c1O [Etoposide, etoposide]	710	~900	766	698	732	47	47	20.2	23	31	25	~47	237	237	317	287	268			199	

Reference: patent US20080181971A1, “Combination Cancer Treatments Comprising Elsamitrucin and Other Agents” (priority 2007, published 2008)
